System: naïve rats

Compound: CN1CC[C@]23c4c5ccc(O)c4O[C@H]2[C@@H](O)C=C[C@H]3[C@H]1C5 [morphine]
- percent of the maximal pain relief effect (morphine ED20 dose 2.8 μmol/kg s.c. alone (FIG. 1)): 20%
- pain relief from a noxious thermal stimulus using the tail flick test (morphine single bolus 10 μmol/kg s.c., at one hour, naïve rats (FIG. 1)): near maximal pain relief
- ED20 of morphine (antinociception, tail flick) (s.c., naïve rats): ~2.8 µmol/kg
- peak levels of antinociception, % of the maximum possible effect (single s.c. bolus administered alone: 2 at 0.04 nmol/kg, morphine at 2.8 μmol/kg): 21 % NPE

Source: patent US20090143417A1, “METHODS OF TREATING PAIN” (The University of Queensland, priority 2004, published 2009)
